{"source": "ChEMBL document CHEMBL1155854", "about": "“Conformationally constrained farnesoid X receptor (FXR) agonists: Naphthoic acid-based analogs of GW 4064” (Bioorg Med Chem Lett, 2008)", "key": {"[1]": {"molecular_target": "T1, Nuclear receptor ROR-alpha (Homo sapiens, UniProt P35398)", "T1 sequence (P35398 whole entry)": "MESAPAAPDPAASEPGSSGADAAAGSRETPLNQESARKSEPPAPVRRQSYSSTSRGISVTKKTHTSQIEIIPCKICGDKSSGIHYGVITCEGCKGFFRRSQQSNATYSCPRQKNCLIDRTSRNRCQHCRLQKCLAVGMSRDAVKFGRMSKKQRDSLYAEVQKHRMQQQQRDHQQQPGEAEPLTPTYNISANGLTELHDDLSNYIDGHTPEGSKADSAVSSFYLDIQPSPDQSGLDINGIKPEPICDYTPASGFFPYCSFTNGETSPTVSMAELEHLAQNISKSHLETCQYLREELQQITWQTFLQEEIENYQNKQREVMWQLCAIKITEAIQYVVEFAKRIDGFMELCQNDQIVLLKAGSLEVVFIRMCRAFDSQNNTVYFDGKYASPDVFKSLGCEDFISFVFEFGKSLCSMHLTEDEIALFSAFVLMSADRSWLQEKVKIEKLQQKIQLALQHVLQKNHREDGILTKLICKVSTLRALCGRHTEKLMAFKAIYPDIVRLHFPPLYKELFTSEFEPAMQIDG", "experiment": "Agonist activity at RORalpha assessed as receptor-coactivator peptide interaction by FRET assay", "assay_type": "functional"}, "[2]": {"experiment": "Oral bioavailability in Beagle dog at 5 mg/kg", "assay_type": "ADME, organism-based, Canis lupus familiaris", "conditions": "in vivo"}, "[3]": {"molecular_target": "T2, Oxysterols receptor LXR-beta (Homo sapiens, UniProt P55055)", "T2 sequence (P55055 whole entry)": "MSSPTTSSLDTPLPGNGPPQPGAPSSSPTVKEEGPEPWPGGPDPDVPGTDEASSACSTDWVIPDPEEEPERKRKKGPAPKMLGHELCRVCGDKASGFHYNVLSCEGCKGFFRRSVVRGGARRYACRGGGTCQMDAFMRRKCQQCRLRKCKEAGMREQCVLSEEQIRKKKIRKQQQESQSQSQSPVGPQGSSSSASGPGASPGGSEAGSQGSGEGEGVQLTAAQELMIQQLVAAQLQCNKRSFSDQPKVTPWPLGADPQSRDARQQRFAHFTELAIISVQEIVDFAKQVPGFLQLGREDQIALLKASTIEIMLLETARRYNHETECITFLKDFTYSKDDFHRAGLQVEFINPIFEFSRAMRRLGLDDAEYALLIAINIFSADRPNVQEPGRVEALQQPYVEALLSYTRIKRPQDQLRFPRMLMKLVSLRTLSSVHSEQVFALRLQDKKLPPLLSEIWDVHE", "experiment": "Agonist activity at LXRbeta by transient transfection assay", "assay_type": "functional"}, "Glucocorticoid receptor": {"molecular_target": "T3, Glucocorticoid receptor (Homo sapiens, UniProt P04150)", "T3 sequence (P04150 whole entry)": "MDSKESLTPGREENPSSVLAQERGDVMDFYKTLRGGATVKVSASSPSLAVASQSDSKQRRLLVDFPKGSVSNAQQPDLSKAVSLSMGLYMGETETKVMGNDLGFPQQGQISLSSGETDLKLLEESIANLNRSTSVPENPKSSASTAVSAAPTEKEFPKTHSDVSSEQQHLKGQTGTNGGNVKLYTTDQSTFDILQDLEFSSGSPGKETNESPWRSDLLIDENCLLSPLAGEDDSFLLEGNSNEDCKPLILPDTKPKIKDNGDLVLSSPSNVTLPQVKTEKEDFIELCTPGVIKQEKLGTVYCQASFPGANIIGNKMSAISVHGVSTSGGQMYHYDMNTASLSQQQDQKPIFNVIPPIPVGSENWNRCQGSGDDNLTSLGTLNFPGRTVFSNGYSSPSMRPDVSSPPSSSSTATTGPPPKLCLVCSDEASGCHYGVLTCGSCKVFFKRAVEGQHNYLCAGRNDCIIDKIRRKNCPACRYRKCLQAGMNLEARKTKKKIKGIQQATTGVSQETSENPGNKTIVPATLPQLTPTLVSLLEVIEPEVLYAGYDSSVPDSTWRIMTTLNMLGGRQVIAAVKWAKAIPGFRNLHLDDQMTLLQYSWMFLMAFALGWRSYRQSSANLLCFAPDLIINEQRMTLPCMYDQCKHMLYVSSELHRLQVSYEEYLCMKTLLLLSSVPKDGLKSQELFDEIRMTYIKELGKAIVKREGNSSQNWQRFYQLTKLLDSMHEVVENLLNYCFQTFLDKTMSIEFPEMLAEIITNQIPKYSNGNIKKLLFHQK", "experiment": "Agonist activity at GR by fluorescence polarization assay", "assay_type": "functional"}, "Bile acid receptor": {"molecular_target": "T4, Bile acid receptor (Homo sapiens, UniProt Q96RI1)", "T4 sequence (Q96RI1 whole entry)": "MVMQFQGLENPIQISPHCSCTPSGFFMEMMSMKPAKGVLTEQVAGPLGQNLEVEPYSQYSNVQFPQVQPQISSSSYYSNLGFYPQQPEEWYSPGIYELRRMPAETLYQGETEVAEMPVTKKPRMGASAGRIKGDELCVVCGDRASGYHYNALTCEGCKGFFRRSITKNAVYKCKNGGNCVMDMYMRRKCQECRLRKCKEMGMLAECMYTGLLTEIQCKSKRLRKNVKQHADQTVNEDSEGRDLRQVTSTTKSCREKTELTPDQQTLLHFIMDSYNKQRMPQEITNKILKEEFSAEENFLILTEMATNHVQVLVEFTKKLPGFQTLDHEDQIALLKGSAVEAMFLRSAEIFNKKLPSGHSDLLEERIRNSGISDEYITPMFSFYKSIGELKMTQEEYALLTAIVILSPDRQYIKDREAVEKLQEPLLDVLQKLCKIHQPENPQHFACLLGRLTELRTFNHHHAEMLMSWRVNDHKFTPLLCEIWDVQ", "experiment": "Agonist activity at FXR expressed in african green monkey CV1 cells by luciferase reporter transient transfection assay", "assay_type": "functional, cell-based, CV-1"}, "[4]": {"molecular_target": "T5, Peroxisome proliferator-activated receptor gamma (Homo sapiens, UniProt P37231)", "T5 sequence (P37231 whole entry)": "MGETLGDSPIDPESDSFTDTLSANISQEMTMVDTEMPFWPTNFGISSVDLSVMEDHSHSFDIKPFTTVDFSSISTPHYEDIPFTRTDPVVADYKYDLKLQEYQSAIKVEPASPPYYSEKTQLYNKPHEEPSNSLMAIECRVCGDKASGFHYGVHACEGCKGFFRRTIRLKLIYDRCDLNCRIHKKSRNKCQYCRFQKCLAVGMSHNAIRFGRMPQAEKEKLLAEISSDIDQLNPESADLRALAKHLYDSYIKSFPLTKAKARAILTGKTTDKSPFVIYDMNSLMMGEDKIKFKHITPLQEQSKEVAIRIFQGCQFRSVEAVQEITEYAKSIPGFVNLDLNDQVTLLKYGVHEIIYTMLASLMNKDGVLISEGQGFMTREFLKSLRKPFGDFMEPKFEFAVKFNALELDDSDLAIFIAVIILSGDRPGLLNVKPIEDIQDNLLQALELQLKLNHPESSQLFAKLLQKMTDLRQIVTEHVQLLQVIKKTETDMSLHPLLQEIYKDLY", "experiment": "Agonist activity at PPARgamma by SPA assay", "assay_type": "functional"}}}
{"smiles": "CC(C)c1onc(-c2c(Cl)cccc2Cl)c1COc1ccc(-c2ccc3c(C(=O)O)cccc3c2)cc1", "values": [{"measurement": "XC50", "setting": "[1]", "result": "> 10", "unit": "µM"}, {"measurement": "bioavailability", "setting": "[2]", "result": 56, "unit": "%"}, {"measurement": "XC50", "setting": "[3]", "result": "> 20", "unit": "µM"}, {"measurement": "XC50", "setting": "Glucocorticoid receptor", "result": "> 20", "unit": "µM"}, {"measurement": "EC50", "setting": "Bile acid receptor", "result": 0.068, "unit": "µM"}, {"measurement": "XC50", "setting": "[4]", "result": "> 10", "unit": "µM"}]}
